Experimental findings from patent publication US8778973B2, “Alkene oxindole derivatives” (Hoffmann-La Roche Inc., priority 2009, dated 2014) are described below.

Each structure is given as a SMILES string.

The experiment deals with Recombinant human AMPK proteins (α1β1γ1, α2β1γ1, α1(1-335), α1(1-394) or α2(1-394)). Put plainly: Scintillation Proximity Assay (SPA) of AMPK activation. It counts as biochemical. Conditions: activator concentration for 50% of maximal enzyme activity; 50 nM recombinant AMPK, 2 μM ATP, 30° C., 2 hr. On the procedure: Recombinant human AMPK α1β1γ1, α2β1γ1 or AMPK α subunit truncations α1(1-335), α1(1-394) and α2(1-394) were constructed, expressed and purified as described previously (Pang, T., Zhang, Z. S., Gu, M., Qiu, B. Y., Yu, L. F., Cao, P. R., Shao, W., Su, M. B., Li, J. Y., Nan, F. J., and Li, J. (2008)). Rat liver AMPK heterotrimer enzyme was obtained from Upstate (Billerica, Mass., U.S.A.).
Scintillation Proximity Assay
Before the Scintillation Proximity Assay (SPA) assay, 200 nM recombinant AMPK proteins (α1β1γ1, α2β1γ1, α1(1-335), α1(1-394) or α2(1-394)) were fully phosphorylated as described previously (Pang et al., 2008). SPA reactions were performed in 96-well plates at a final volume of 501 containing 20 mM Tris-HCl pH 7.5, 5 mM MgCl2, 1 mM DTT, 2 μM biotin-SAMS, 2 μM ATP, 0.2 μCi/well [γ-^33P]ATP, and various amount of activator. Reactions were initiated by the addition of 50 nM recombinant AMPK proteins to the reaction solutions and incubated at 30° C. for 2 hr. After that, reactions were terminated by the addition of 401 stop solution containing 80 μg streptavidin-coated SPA beads per well, 50 mM EDTA, 0.1% Triton X-100 in PBS, pH 7.5 and incubated for 1 hr. Finally, a 160 ul suspension solution containing 2.4 M CsCl, 50 mM EDTA, and 0.1% Triton X-100 in PBS (pH 7.5) was added to the reaction solution to suspend SPA beads completely. SPA signals were determined with a Wallac MicroBeta plate counter (PerkinElmer) 30 min later for calculation of the amount of product formed. The amount of products formed in 2 hr was plotted against activator concentrations to determine the effective concentration of the activator (EC50) required for 50% of maximal enzyme activity.
Compounds as described above have EC50 values between 0.5 uM and 50 uM, preferred compounds have EC50 values between 0.5 uM and 10 uM, particularly preferred compounds have EC50 values between 0.5 uM and 1 uM.
On the technique in general: In a scintillation proximity assay essentially only radioactivity close to the scintillant gives light.

The EC50 is the concentration that produces a half-maximal response. As to `CCOC(=O)c1cccc(N2C(=O)/C(=C(\C)c3ccccc3)c3ccccc32)c1` [Example 1, 3-[2-Oxo-3-(1-phenyl-ethylidene)-2,3-dihydro-indol-1-yl]-benzoic acid ethyl ester], the 50% effective concentration (EC50) came out at 2.21 µM.
As for `COC(=O)Cc1cccc(N2C(=O)/C(=C(\C)c3ccccc3)c3ccccc32)c1` [Example 2, (3-{2-Oxo-3-[1-phenyl-eth-(E)-ylidene]-2,3-dihydro-indol-1-yl}-phenyl)-acetic acid methyl ester], the EC50 worked out at 1.49 µM.
On to `COC(=O)c1cc(N2C(=O)/C(=C(\C)c3ccccc3)c3ccccc32)ccc1C` [Example 3, 2-Methyl-5-{2-oxo-3-[1-phenyl-eth-(E)-ylidene]-2,3-dihydro-indol-1-yl}-benzoic acid methyl ester], for which the EC50 is 5.61 µM.
As to `C/C(=C1\C(=O)N(CC(=O)O)c2ccccc21)c1ccccc1` [Example 4, [2-Oxo-3-(1-phenyl-ethylidene)-2,3-dihydro-indol-1-yl]-acetic acid], the EC50 was determined as 5.25 µM.
As to `COC(=O)c1cccc(CN2C(=O)/C(=C(\c3ccccc3)c3ccc(Cl)cc3)c3ccccc32)c1` [Example 5, 3-((3-((4-Chlorophenyl)(phenyl)meth-(E)-ylene)-2-oxoindolin-1-yl)methyl)benzoic acid methyl ester], the EC50 is 2.3 µM.
For `COC(=O)c1cccc(CN2C(=O)/C(=C(\c3ccccc3)c3ccc(Cl)cc3)c3cccc(F)c32)c1` [Example 6, 3-{3-[1-(4-Chloro-phenyl)-1-phenyl-meth-(E)-ylidene]-7-fluoro-2-oxo-2,3-dihydro-indol-1-ylmethyl}-benzoic acid methyl ester], the half-maximal effective concentration (EC50) is 1.51 µM.
As for `COC(=O)c1cccc(CN2C(=O)C(=C(c3ccccc3)c3ccccc3)c3ccccc32)c1` [Example 7, 3-(3-Benzhydrylidene-2-oxo-2,3-dihydro-indol-1-ylmethyl)-benzoic acid methyl ester], the EC50 worked out at 1.54 µM.
Consider `COC(=O)c1cccc(CN2C(=O)/C(=C(\c3ccccc3)c3ccc(OC)cc3)c3ccccc32)c1` [Example 8, 3-{3-[1-(4-Methoxy-phenyl)-1-phenyl-meth-(E)-ylidene]-2-oxo-2,3-dihydro-indol-1-ylmethyl}-benzoic acid methyl ester], for which the half-maximal effective concentration (EC50) was 6.47 µM.
In the case of `COC(=O)c1cccc(CN2C(=O)/C(=C(\c3ccccc3)c3ccc(C)cc3)c3ccccc32)c1` [Example 9, 3-{2-Oxo-3-[1-phenyl-1-p-tolyl-meth-(E)-ylidene]-2,3-dihydro-indol-1-ylmethyl}-benzoic acid methyl ester], the EC50 stood at 2.16 µM.
For `COC(=O)c1cccc(CN2C(=O)/C(=C(/c3ccc(Cl)cc3)c3ccccc3OC)c3ccccc32)c1` [Example 10, 3-{3-[1-(4-Chloro-phenyl)-1-(2-methoxy-phenyl)-meth-(Z)-ylidene]-2-oxo-2,3-dihydro-indol-1-ylmethyl}-benzoic acid methyl ester], the EC50 is 4.44 µM.
Take `COC(=O)c1cccc(CN2C(=O)/C(=C(\c3ccccc3)c3ccc(C#N)cc3)c3ccccc32)c1` [Example 11, 3-{3-[1-(4-Cyano-phenyl)-1-phenyl-meth-(E)-ylidene]-2-oxo-2,3-dihydro-indol-1-ylmethyl}-benzoic acid methyl ester]: the 50% effective concentration (EC50) turned out to be 3.11 µM.
To `COC(=O)c1cccc(CN2C(=O)/C(=C(\c3ccccc3)c3ccc(C(F)(F)F)cc3)c3ccccc32)c1` [Example 12, 3-{2-Oxo-3-[1-phenyl-1-(4-trifluoromethyl-phenyl)-meth-(E)-ylidene]-2,3-dihydro-indol-1-ylmethyl}-benzoic acid methyl ester] belongs 5.34 µM.
For `COC(=O)c1cccc(CN2C(=O)/C(=C(\c3ccccc3)c3ccc(F)c(Cl)c3)c3ccccc32)c1` [Example 13, 3-{3-[1-(3-Chloro-4-fluoro-phenyl)-1-phenyl-meth-(E)-ylidene]-2-oxo-2,3-dihydro-indol-1-ylmethyl}-benzoic acid methyl ester], the EC50 is 1.86 µM.
As to `COC(=O)c1cccc(CN2C(=O)/C(=C(\c3ccccc3)c3cc(OC)c(OC)c(OC)c3)c3ccccc32)c1` [Example 14, 3-{2-Oxo-3-[1-phenyl-1-(3,4,5-trimethoxy-phenyl)-meth-(E)-ylidene]-2,3-dihydro-indol-1-ylmethyl}-benzoic acid methyl ester], the half-maximal effective concentration (EC50) came out at 4.34 µM.
As to `COC(=O)c1cccc(CN2C(=O)/C(=C(\c3ccccc3)c3ccc(F)c(F)c3)c3ccccc32)c1` [Example 15, 3-{3-[1-(3,4-Difluoro-phenyl)-1-phenyl-meth-(E)-ylidene]-2-oxo-2,3-dihydro-indol-1-ylmethyl}-benzoic acid methyl ester], the EC50 worked out at 2.47 µM.
`COC(=O)c1cccc(CN2C(=O)/C(=C(\c3ccccc3)c3cccc(Cl)c3)c3ccccc32)c1` [Example 16, 3-{3-[1-(3-Chloro-phenyl)-1-phenyl-meth-(E)-ylidene]-2-oxo-2,3-dihydro-indol-1-ylmethyl}-benzoic acid methyl ester]: the EC50 came out at 1.53 µM.
As for `COC(=O)c1cccc(CN2C(=O)/C(=C(\c3ccccc3)c3ccccc3Cl)c3ccccc32)c1` [Example 17, 3-{3-[1-(2-Chloro-phenyl)-1-phenyl-meth-(E)-ylidene]-2-oxo-2,3-dihydro-indol-1-ylmethyl}-benzoic acid methyl ester], the concentration for a half-maximal effect (EC50) was 2.34 µM.
To `COC(=O)c1cccc(CN2C(=O)/C(=C(\c3ccccc3)c3ccc(Cl)cc3)c3cc(F)ccc32)c1` [Example 18, 3-{3-[1-(4-Chloro-phenyl)-1-phenyl-meth-(E)-ylidene]-5-fluoro-2-oxo-2,3-dihydro-indol-1-ylmethyl}-benzoic acid methyl ester] belongs 5.66 µM; to `COC(=O)c1cccc(CN2C(=O)/C(=C(\c3ccccc3)c3cc(Cl)cc(Cl)c3)c3ccccc32)c1` [Example 19, 3-{3-[1-(3,5-Dichloro-phenyl)-1-phenyl-meth-(E)-ylidene]-2-oxo-2,3-dihydro-indol-1-ylmethyl}-benzoic acid methyl ester], 1 µM; to `COC(=O)c1cccc(CN2C(=O)/C(=C(\c3ccccc3)c3cccc(Cl)c3Cl)c3ccccc32)c1` [Example 20, 3-{3-[1-(2,3-Dichloro-phenyl)-1-phenyl-meth-(E)-ylidene]-2-oxo-2,3-dihydro-indol-1-ylmethyl}-benzoic acid methyl ester], 1.76 µM.
For `COC(=O)c1ccc(CN2C(=O)/C(=C(\c3ccccc3)c3ccc(Cl)cc3)c3ccccc32)cc1` [Example 21, 4-{3-[1-(4-Chloro-phenyl)-1-phenyl-meth-(E)-ylidene]-2-oxo-2,3-dihydro-indol-1-ylmethyl}-benzoic acid methyl ester], the EC50 was 6.07 µM.
Turning to `COC(=O)c1cccc(CN2C(=O)/C(=C(\c3ccccc3)c3ccc(Cl)cc3)c3cc(OC)ccc32)c1` [Example 22, 3-{3-[1-(4-Chloro-phenyl)-1-phenyl-meth-(E)-ylidene]-5-methoxy-2-oxo-2,3-dihydro-indol-1-ylmethyl}-benzoic acid methyl ester], the 50% effective concentration (EC50) was found to be 4.13 µM.
To `COC(=O)c1cccc(CN2C(=O)/C(=C(\c3ccccc3)c3ccccc3Br)c3ccccc32)c1` [Example 23, 3-{3-[1-(2-Bromo-phenyl)-1-phenyl-meth-(E)-ylidene]-2-oxo-2,3-dihydro-indol-1-ylmethyl}-benzoic acid methyl ester] belongs 6.97 µM.
